Measured values published in patent US8999940B2 (Ipsen Pharma S.A.S., priority 2008, dated 2015).

Experiments:
[1] = Rat plasma half-life assay; type: in vitro ADME; details: 37° C., LC-MS, read-out: Rat Plasma T½ (converted)
Experimental: (§1) B. Human and Rat Plasma Half-Life Assay
(§2) 50 μl was removed at various times, like at 0, 1, 2, 3, 4, 8, 24, 32, 48, 56, 72 hours, mixed with 5 μl formic acid and 150 μL acetonitrile in a microcentrifuge tube, vertexed, and centrifuged for 10 minutes at 10 K rpm. The supernatant was transferred to an injection vial and analyzed by LC-MS. The LC-MS system consisted of an API4000 mass spectrometer with an ESI probe. Positive ion mode and full scan detection were used. HPLC separation was carried out on a Luna 3μ. C8 (2), 2×30 mm column with a gradient from 90% A to 90% B in 10 minutes at a flow rate of 0.3 ml/min. Buffer A was 1% formic acid in water and buffer B was 1% formic acid acetonitrile.

[2] = target: T1, human recombinant GIP receptor (Homo sapiens, UniProt P48546); assay: In vitro hGIP receptor binding assay
T1 construct: expressed in transfected cells; host or cells: CHO-K1 clonal cells (membrane preparation)
T1 sequence (P48546 22-466): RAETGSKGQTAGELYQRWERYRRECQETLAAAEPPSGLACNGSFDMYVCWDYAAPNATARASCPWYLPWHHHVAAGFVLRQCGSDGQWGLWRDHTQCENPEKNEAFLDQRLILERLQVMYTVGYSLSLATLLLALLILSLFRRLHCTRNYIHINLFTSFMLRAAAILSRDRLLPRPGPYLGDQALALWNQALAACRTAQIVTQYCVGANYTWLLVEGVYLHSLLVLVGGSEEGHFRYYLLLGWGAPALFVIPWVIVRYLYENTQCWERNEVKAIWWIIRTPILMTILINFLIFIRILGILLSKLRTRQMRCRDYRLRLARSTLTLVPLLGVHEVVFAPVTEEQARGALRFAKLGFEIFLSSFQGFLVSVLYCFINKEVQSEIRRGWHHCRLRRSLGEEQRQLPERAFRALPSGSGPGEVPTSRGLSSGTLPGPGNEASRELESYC
Experimental: A. In Vitro hGIP Receptor Binding Assay […] The incubations were terminated by rapid filtration through GF/C filters (pre-soaked in 0.5% polyethylenimine) using a Brandel filtration manifold. Each tube and filter were then washed three times with 5-ml aliquots of ice-cold buffer.

[3] = Human plasma half-life assay; type: in vitro ADME; details: 37° C., LC-MS, read-out: Human Plasma T½ (converted)
Experimental: as §1, §2

Row | SMILES | half-life at 0.1 mg/ml [1] [h] | Ki [2] [nM] | half-life at 0.1 mg/ml [3] [h]
1 | CCCC[C@H](NC(=O)[C@H](C)NC(=O)[C@@H](NC(=O)C1(NC(=O)[C@H](Cc2ccc(O)cc2)NC(=O)[C@H](CC(=O)O)NC(=O)[C@H](CO)NC(=O)[C@@H](NC(=O)[C@H](Cc2ccccc2)NC(=O)[C@@H](NC(=O)CNC(=O)[C@H](CCC(=O)O)NC(=O)C(C)(C)NC(=O)[C@@H](N)Cc2cc(Br)c(O)c(Br)c2)[C@@H](C)O)[C@@H](C)CC)CCCC1)[C@@H](C)CC)C(=O)N[C@@H](CC(=O)O)C(=O)N[C@@H](CCCCN)C(=O)N[C@H](C(=O)N[C@@H](Cc1c[nH]cn1)C(=O)N[C@@H](CCC(N)=O)C(=O)N[C@@H](CCC(N)=O)C(=O)N[C@@H](CC(=O)O)C(=O)N[C@@H](Cc1ccccc1)C(=O)N[C@H](C(=O)N[C@@H](CC(N)=O)C(=O)N[C@@H](Cc1c[nH]c2ccccc12)C(=O)N[C@@H](CC(C)C)C(=O)N[C@@H](CC(C)C)C(=O)N[C@@H](C)C(=O)N[C@@H](CCC(N)=O)C(=O)N[C@@H](CCCCN)C(=O)NCC(=O)N[C@@H](CCCCN)C(=O)N[C@@H](CCCCN)C(=O)N[C@@H](CC(N)=O)C(=O)N[C@@H](CC(=O)O)C(=O)N[C@@H](Cc1c[nH]c2ccccc12)C(=O)N[C@@H](CCCCN)C(=O)N[C@@H](Cc1c[nH]cn1)C(=O)N[C@@H](CC(N)=O)C(=O)N[C@H](C(=O)N[C@H](C(=O)N[C@@H](CCC(N)=O)C(=O)O)[C@@H](C)O)[C@@H](C)CC)C(C)C)[C@@H](C)CC [Example 13, (3,5Br-Tyr^1, Aib^2, A5c^11, Nle^14)hGIP(1-42)-OH] | 13.1 | 21.8 | 50.6
2 | CCCC[C@H](NC(=O)[C@H](C)NC(=O)[C@@H](NC(=O)C1(NC(=O)[C@H](Cc2ccc(O)cc2)NC(=O)[C@H](CC(=O)O)NC(=O)[C@H](CO)NC(=O)[C@@H](NC(=O)[C@H](Cc2ccccc2)NC(=O)[C@@H](NC(=O)CNC(=O)[C@H](CCC(=O)O)NC(=O)C(C)(C)NC(=O)[C@@H](N)Cc2ccc(O)c(Br)c2)[C@@H](C)O)[C@@H](C)CC)CCCC1)[C@@H](C)CC)C(=O)N[C@@H](CC(=O)O)C(=O)N[C@@H](CCCCN)C(=O)N[C@H](C(=O)N[C@@H](Cc1c[nH]cn1)C(=O)N[C@@H](CCC(N)=O)C(=O)N[C@@H](CCC(N)=O)C(=O)N[C@@H](CC(=O)O)C(=O)N[C@@H](Cc1ccccc1)C(=O)N[C@H](C(=O)N[C@@H](CC(N)=O)C(=O)N[C@@H](Cc1c[nH]c2ccccc12)C(=O)N[C@@H](CC(C)C)C(=O)N[C@@H](CC(C)C)C(=O)N[C@@H](C)C(=O)N[C@@H](CCC(N)=O)C(=O)N[C@@H](CCCCN)C(=O)NCC(=O)N[C@@H](CCCCN)C(=O)N[C@@H](CCCCN)C(=O)N[C@@H](CC(N)=O)C(=O)N[C@@H](CC(=O)O)C(=O)N[C@@H](Cc1c[nH]c2ccccc12)C(=O)N[C@@H](CCCCN)C(=O)N[C@@H](Cc1c[nH]cn1)C(=O)N[C@@H](CC(N)=O)C(=O)N[C@H](C(=O)N[C@H](C(=O)N[C@@H](CCC(N)=O)C(=O)O)[C@@H](C)O)[C@@H](C)CC)C(C)C)[C@@H](C)CC [Example 15, (3Br-Tyr^1, Aib^2, A5c^11, Nle^14)hGIP(1-42)-OH] | 22.9 | 0.6 | 50.6
3 | CCCC[C@H](NC(=O)[C@H](C)NC(=O)[C@@H](NC(=O)C1(NC(=O)[C@H](Cc2ccc(O)cc2)NC(=O)[C@H](CC(=O)O)NC(=O)[C@H](CO)NC(=O)[C@@H](NC(=O)[C@H](Cc2ccccc2)NC(=O)[C@@H](NC(=O)CNC(=O)[C@H](CCC(=O)O)NC(=O)C(C)(C)NC(=O)[C@@H](N)Cc2ccc(O)c(I)c2)[C@@H](C)O)[C@@H](C)CC)CCCC1)[C@@H](C)CC)C(=O)N[C@@H](CC(=O)O)C(=O)N[C@@H](CCCCN)C(=O)N[C@H](C(=O)N[C@@H](Cc1c[nH]cn1)C(=O)N[C@@H](CCC(N)=O)C(=O)N[C@@H](CCC(N)=O)C(=O)N[C@@H](CC(=O)O)C(=O)N[C@@H](Cc1ccccc1)C(=O)N[C@H](C(=O)N[C@@H](CC(N)=O)C(=O)N[C@@H](Cc1c[nH]c2ccccc12)C(=O)N[C@@H](CC(C)C)C(=O)N[C@@H](CC(C)C)C(=O)N[C@@H](C)C(=O)N[C@@H](CCC(N)=O)C(=O)N[C@@H](CCCCN)C(=O)NCC(=O)N[C@@H](CCCCN)C(=O)N[C@@H](CCCCN)C(=O)N[C@@H](CC(N)=O)C(=O)N[C@@H](CC(=O)O)C(=O)N[C@@H](Cc1c[nH]c2ccccc12)C(=O)N[C@@H](CCCCN)C(=O)N[C@@H](Cc1c[nH]cn1)C(=O)N[C@@H](CC(N)=O)C(=O)N[C@H](C(=O)N[C@H](C(=O)N[C@@H](CCC(N)=O)C(=O)O)[C@@H](C)O)[C@@H](C)CC)C(C)C)[C@@H](C)CC [Example 16, (3I-Tyr^1, Aib^2, A5c^11, Nle^14)hGIP(1-42)-OH] | 18.5 | 5.03 | 52.1
4 | CCCC[C@H](NC(=O)[C@H](C)NC(=O)[C@@H](NC(=O)C1(NC(=O)[C@H](Cc2ccc(O)cc2)NC(=O)[C@H](CC(=O)O)NC(=O)[C@H](CO)NC(=O)[C@@H](NC(=O)[C@H](Cc2ccccc2)NC(=O)[C@@H](NC(=O)CNC(=O)[C@H](CCC(=O)O)NC(=O)C(C)(C)NC(=O)[C@@H](N)Cc2cc(I)c(O)c(I)c2)[C@@H](C)O)[C@@H](C)CC)CCCC1)[C@@H](C)CC)C(=O)N[C@@H](CC(=O)O)C(=O)N[C@@H](CCCCN)C(=O)N[C@H](C(=O)N[C@@H](Cc1c[nH]cn1)C(=O)N[C@@H](CCC(N)=O)C(=O)N[C@@H](CCC(N)=O)C(=O)N[C@@H](CC(=O)O)C(=O)N[C@@H](Cc1ccccc1)C(=O)N[C@H](C(=O)N[C@@H](CC(N)=O)C(=O)N[C@@H](Cc1c[nH]c2ccccc12)C(=O)N[C@@H](CC(C)C)C(=O)N[C@@H](CC(C)C)C(=O)N[C@@H](C)C(=O)N[C@@H](CCC(N)=O)C(=O)N[C@@H](CCCCN)C(=O)NCC(=O)N[C@@H](CCCCN)C(=O)N[C@@H](CCCCN)C(=O)N[C@@H](CC(N)=O)C(=O)N[C@@H](CC(=O)O)C(=O)N[C@@H](Cc1c[nH]c2ccccc12)C(=O)N[C@@H](CCCCN)C(=O)N[C@@H](Cc1c[nH]cn1)C(=O)N[C@@H](CC(N)=O)C(=O)N[C@H](C(=O)N[C@H](C(=O)N[C@@H](CCC(N)=O)C(=O)O)[C@@H](C)O)[C@@H](C)CC)C(C)C)[C@@H](C)CC [Example 17, (3,51-Tyr^1, Aib^2, A5c^11, Nle^14)hGIP(1-42)-OH] | 30.1 | 77.9 | > 72
5 | CCCC[C@H](NC(=O)[C@H](C)NC(=O)[C@@H](NC(=O)C1(NC(=O)[C@H](Cc2ccc(O)cc2)NC(=O)[C@H](CC(=O)O)NC(=O)[C@H](CO)NC(=O)[C@@H](NC(=O)[C@H](Cc2ccccc2)NC(=O)[C@@H](NC(=O)CNC(=O)[C@H](CCC(=O)O)NC(=O)C(C)(C)NC(=O)[C@@H](N)Cc2ccc(N)cc2)[C@@H](C)O)[C@@H](C)CC)CCCC1)[C@@H](C)CC)C(=O)N[C@@H](CC(=O)O)C(=O)N[C@@H](CCCCN)C(=O)N[C@H](C(=O)N[C@@H](Cc1c[nH]cn1)C(=O)N[C@@H](CCC(N)=O)C(=O)N[C@@H](CCC(N)=O)C(=O)N[C@@H](CC(=O)O)C(=O)N[C@@H](Cc1ccccc1)C(=O)N[C@H](C(=O)N[C@@H](CC(N)=O)C(=O)N[C@@H](Cc1c[nH]c2ccccc12)C(=O)N[C@@H](CC(C)C)C(=O)N[C@@H](CC(C)C)C(=O)N[C@@H](C)C(=O)N[C@@H](CCC(N)=O)C(=O)N[C@@H](CCCCN)C(=O)NCC(=O)N[C@@H](CCCCN)C(=O)N[C@@H](CCCCN)C(=O)N[C@@H](CC(N)=O)C(=O)N[C@@H](CC(=O)O)C(=O)N[C@@H](Cc1c[nH]c2ccccc12)C(=O)N[C@@H](CCCCN)C(=O)N[C@@H](Cc1c[nH]cn1)C(=O)N[C@@H](CC(N)=O)C(=O)N[C@H](C(=O)N[C@H](C(=O)N[C@@H](CCC(N)=O)C(=O)O)[C@@H](C)O)[C@@H](C)CC)C(C)C)[C@@H](C)CC [Example 18, (4NH2-Phe^1, Aib^2, A5c^11, Nle^14)hGIP(1-42)-OH] | 32.1 | 3.4 | > 72
